Data published in ChEMBL document CHEMBL1201861, “Genomics of Drug Sensitity in Cancer screening data, Wellcome Trust Sanger Institute”.

Legend:
Assay in all cases: cells
Details in all cases: Homo sapiens
QIMR-WIL = format: functional, cell-based;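 further: growth inhibition of QIMR-WIL cells, read out with a cell viability assay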
COLO-684 = format: functional, cell-based
ES6 = format: functional, cell-based;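 further: growth inhibition of human ES6 cells, read out with a cell viability assay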
HH = format: functional, cell-based
697 = format: functional, cell-based
LS-1034 = format: functional, cell-based
LB831-BLC = format: functional, cell-based;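 further: growth inhibition of LB831-BLC cells, read out with a cell viability assay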
ML-2 = format: functional, cell-based;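 further: growth inhibition of ML-2 cells, measured with a cell viability readout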
LB2518-MEL = format: functional, cell-based;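 further: growth inhibition of human LB2518-MEL cells, measured with a cell viability assay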
NCI-H1770 = format: functional, cell-based;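 further: growth inhibition of NCI-H1770 cells determined with a viability readout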
NCI-H1299 = format: functional, cell-based;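 further: growth inhibition of human NCI-H1299 cells, read out by a cell viability assay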
AM-38 = format: functional, cell-based;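 further: growth inhibition of AM-38 cells of human origin, read out by a cell viability assay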
SK-LMS-1 = format: functional, cell-based;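 further: growth inhibition of human SK-LMS-1 cells, read out with a cell viability assay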
KM12 = format: functional, cell-based;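 further: KM12 cell growth inhibition, read out with a cell viability assay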
MN-60 = format: functional, cell-based;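 further: growth inhibition of the MN-60 cell line, determined with a cell viability assay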
Calu-6 = format: functional, cell-based;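 further: growth of human Calu-6 cells, read out by a cell viability assay, IC50 marking inhibition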
KYSE-450 = format: functional, cell-based;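 further: cell growth inhibition measured by a viability assay in human KYSE-450 cells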
MV4-11 = format: functional, cell-based, MV-4-11;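 further: cell viability readout measuring growth inhibition of human MV-4-11 cells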
NB13 = format: functional, cell-based;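 further: cell viability readout measuring growth inhibition of human NB13 cells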
CP66-MEL = format: functional, cell-based;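 further: growth inhibition of CP66-MEL cells determined in a cell viability assay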
OCUB-M = format: functional, cell-based;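 further: growth inhibition of the cancer cell line, read out through a cell viability assay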
IST-SL1 = format: functional, cell-based;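 further: growth inhibition of human IST-SL1 cells, read out with a cell viability assay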
HD-MY-Z = format: functional, cell-based;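 further: growth inhibition of HD-MY-Z cells, read out with a cell viability assay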
NCI-H1563 = format: functional, cell-based;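 further: growth inhibition of human NCI-H1563 cells, read out with a cell viability assay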
C8166 = format: functional, cell-based;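 further: growth inhibition of human C8166 cells measured by a cell viability assay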
SF-126 = format: functional, cell-based;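 further: growth inhibition of human SF126 cells, read out with a cell viability assay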
SW982 = format: functional, cell-based;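 further: growth inhibition of SW982 cells, read out with a cell viability assay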
EOL1 = format: functional, cell-based;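 further: growth inhibition of EoL-1 cells, read out by a cell viability assay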
NCI-H1838 = format: functional, cell-based;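 further: growth inhibition of NCI-H1838 cells, determined with a cell viability readout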
HuTu80 = format: functional, cell-based, HUTU-80;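 further: growth inhibition of HuTu80 human cells, determined with a cell viability readout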
MKN-45 = format: functional, cell-based;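 further: growth inhibition of human MKN-45 cells, measured with a cell viability assay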
KM-H2 = format: functional, cell-based;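 further: growth inhibition of KM-H2 cells, read out by a cell viability assay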
CPC-N = format: functional, cell-based;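 further: growth inhibition of CPC-N cells, with a cell viability assay as the readout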
OCI-AML2 = format: functional, cell-based;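 further: growth inhibition of OCI-AML2 cells, read out with a cell viability assay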
OVCAR-8 = format: functional, cell-based;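 further: growth inhibition of human OVCAR-8 cells, read out by a cell viability assay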
HC-1 = format: functional, cell-based;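 further: growth inhibition of HC-1 cells measured by a cell viability assay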
RPMI-8866 = format: functional, cell-based
SNU1 = format: functional, cell-based;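 further: growth inhibition of human NCI-SNU-1 cells, measured with a cell viability assay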
KINGS-1 = format: functional, cell-based;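 further: cell viability assay measuring suppression of KINGS-1 cell growth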
A498 = format: functional, cell-based;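 further: growth inhibition of human A498 cells, read out with a cell viability assay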
UACC-893 = format: functional, cell-based
SF-268 = format: functional, cell-based;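 further: growth inhibition of SF-268 cells determined with a cell viability assay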
LAN-6 = format: functional, cell-based;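 further: growth inhibition of LAN-6 cells, determined with a cell viability assay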
A704 = format: functional, cell-based;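 further: growth inhibition of human A704 cells, read out with a cell viability assay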
JEG-3 = format: functional, cell-based;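 further: growth inhibition of human JEG-3 cells, read out with a cell viability assay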
GB-1 = format: functional, cell-based;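 further: growth of GB-1 cells judged by a viability assay, IC50 marks the concentration inhibiting growth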
ES1 = format: functional, cell-based;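 further: growth inhibition of ES1 cells, read out with a cell viability assay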
NCI-H1155 = format: functional, cell-based;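 further: cell growth inhibition measured by a viability assay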
GAK = format: functional, cell-based;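 further: cell growth inhibition read out by a cell viability assay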
RPMI-8226 = format: functional, cell-based
MDA-MB-453 = format: functional, cell-based
MHH-PREB-1 = format: functional, cell-based;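 further: cell viability assay measuring inhibition of proliferation of human MHH-PREB-1 cells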
NCI-H1355 = format: functional, cell-based;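 further: growth inhibition of human NCI-H1355 cells, read out by a cell viability assay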
no-11 = format: functional, cell-based;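 further: growth inhibition of human NO-11 cells, read out with a cell viability assay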
TE-12 = format: functional, cell-based;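 further: growth inhibition of TE-12 cells, read out by a cell viability assay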
UMC-11 = format: functional, cell-based
RCC10RGB = format: functional, cell-based
NCI-H2052 = format: functional, cell-based
RS4-11 = format: functional, cell-based
JAR = format: functional, cell-based
DB = format: functional, cell-based
MS-1 = format: functional, cell-based
SNB-75 = format: functional, cell-based
SW 962 = format: functional, cell-based
ECC4 = format: functional, cell-based
MDA-MB-157 = format: functional, cell-based

SMILES: CC(C)=CC[C@@H](O)C1=CC(=O)c2c(O)ccc(O)c2C1=O [SHIKONIN]
- IC50 (QIMR-WIL): 182 nM
- IC50 (COLO-684): 401 nM
- IC50 (ES6): 7880 nM
- IC50 (HH): 1120 nM
- IC50 697: 876 nM
- IC50 (LS-1034): 2750 nM
- IC50 (LB831-BLC): 1920 nM
- IC50 (ML-2): 618 nM
- IC50 (LB2518-MEL): 3280 nM
- IC50 (NCI-H1770): 243 nM
- IC50 (NCI-H1299): 1070 nM
- IC50 (AM-38): 96.3 nM
- IC50 (SK-LMS-1): 108 nM
- IC50 (KM12): 740 nM
- IC50 (MN-60): 348 nM
- IC50 (Calu-6): 15700 nM
- IC50 (KYSE-450): 138 nM
- IC50 (MV4-11): 274 nM
- IC50 (NB13): 317 nM
- IC50 (CP66-MEL): 2400 nM
- IC50 (OCUB-M): 865 nM
- IC50 (IST-SL1): > 16000 nM
- IC50 (HD-MY-Z): 470 nM
- IC50 (NCI-H1563): 626 nM
- IC50 (C8166): 408 nM
- IC50 (SF-126): 773 nM
- IC50 (SW982): 60.2 nM
- IC50 (EOL1): 509 nM
- IC50 (NCI-H1838): > 16000 nM
- IC50 (HuTu80): 370 nM
- IC50 (MKN-45): 608 nM
- IC50 (KM-H2): 1040 nM
- IC50 (CPC-N): > 16000 nM
- IC50 (OCI-AML2): 298 nM
- IC50 (OVCAR-8): 460 nM
- IC50 (HC-1): > 16000 nM
- IC50 (RPMI-8866): 536 nM
- IC50 (SNU1): 1600 nM
- IC50 (KINGS-1): 14100 nM
- IC50 (A498): 81.9 nM
- IC50 (UACC-893): > 16000 nM
- IC50 (SF-268): 5580 nM
- IC50 (LAN-6): 3220 nM
- IC50 (A704): 2700 nM
- IC50 (JEG-3): 3170 nM
- IC50 (GB-1): 1330 nM
- IC50 (ES1): 503 nM
- IC50 (NCI-H1155): > 16000 nM
- IC50 (GAK): 1040 nM
- IC50 (RPMI-8226): 472 nM
- IC50 (MDA-MB-453): 2520 nM
- IC50 (MHH-PREB-1): 252 nM
- IC50 (NCI-H1355): 2820 nM
- IC50 (no-11): 805 nM
- IC50 (TE-12): 2340 nM
- IC50 (UMC-11): > 16000 nM
- IC50 (RCC10RGB): 1560 nM
- IC50 (NCI-H2052): 61.1 nM
- IC50 (RS4-11): 417 nM
- IC50 (JAR): 3260 nM
- IC50 (DB): 726 nM
- IC50 (MS-1): 1770 nM
- IC50 (SNB-75): 746 nM
- IC50 (SW 962): 568 nM
- IC50 (ECC4): 1200 nM
- IC50 (MDA-MB-157): 637 nM

SMILES: CCNC(=O)c1noc(-c2cc(C(C)C)c(O)cc2O)c1-c1ccc(CN2CCOCC2)cc1 [LUMINESPIB]
- IC50 (QIMR-WIL): 12.7 nM
- IC50 (COLO-684): 81.6 nM
- IC50 (ES6): 12.6 nM
- IC50 (HH): 142 nM
- IC50 697: 20.3 nM
- IC50 (LS-1034): 41.9 nM
- IC50 (LB831-BLC): 32.2 nM
- IC50 (ML-2): 36.7 nM
- IC50 (LB2518-MEL): > 256 nM
- IC50 (NCI-H1770): 58.8 nM
- IC50 (NCI-H1299): 11.5 nM
- IC50 (AM-38): 13 nM
- IC50 (SK-LMS-1): 4.58 nM
- IC50 (KM12): 14 nM
- IC50 (MN-60): 242 nM
- IC50 (Calu-6): 79.6 nM
- IC50 (KYSE-450): 13.5 nM
- IC50 (MV4-11): 0.558 nM
- IC50 (NB13): 42.3 nM
- IC50 (CP66-MEL): 78.9 nM
- IC50 (OCUB-M): 39.6 nM
- IC50 (IST-SL1): > 256 nM
- IC50 (HD-MY-Z): 144 nM
- IC50 (NCI-H1563): > 256 nM
- IC50 (C8166): 11.3 nM
- IC50 (SF-126): 50.1 nM
- IC50 (SW982): 12.9 nM
- IC50 (EOL1): > 256 nM
- IC50 (NCI-H1838): > 256 nM
- IC50 (HuTu80): 20 nM
- IC50 (MKN-45): 206 nM
- IC50 (KM-H2): 72.4 nM
- IC50 (CPC-N): > 256 nM
- IC50 (OCI-AML2): 12.8 nM
- IC50 (OVCAR-8): 32.8 nM
- IC50 (HC-1): 40.7 nM
- IC50 (RPMI-8866): > 256 nM
- IC50 (SNU1): 78.9 nM
- IC50 (KINGS-1): 24.3 nM
- IC50 (A498): > 256 nM
- IC50 (UACC-893): 59 nM
- IC50 (SF-268): 34 nM
- IC50 (LAN-6): 85 nM
- IC50 (A704): > 256 nM
- IC50 (JEG-3): 95.1 nM
- IC50 (GB-1): 21.9 nM
- IC50 (ES1): 2.66 nM
- IC50 (NCI-H1155): > 256 nM
- IC50 (GAK): 57.3 nM
- IC50 (RPMI-8226): 117 nM
- IC50 (MDA-MB-453): > 256 nM
- IC50 (MHH-PREB-1): 93.1 nM
- IC50 (NCI-H1355): 24 nM
- IC50 (no-11): 30.5 nM
- IC50 (TE-12): 17.8 nM
- IC50 (UMC-11): > 256 nM
- IC50 (RCC10RGB): > 256 nM
- IC50 (NCI-H2052): 104 nM
- IC50 (RS4-11): 33.8 nM
- IC50 (JAR): > 256 nM
- IC50 (DB): 229 nM
- IC50 (MS-1): 186 nM
- IC50 (SNB-75): 24.7 nM
- IC50 (SW 962): 28.5 nM
- IC50 (ECC4): 199 nM
- IC50 (MDA-MB-157): > 256 nM
